Data as given in US10322143B2, “Inhibitors of ADAMTS4 or ADAMTS5 for use in preventing or treating cardiac remodeling and chronic heart failure” (Universitetet i Oslo, priority 2013, dated 2019).

Key:
MT4-MMP mRNA = MT4-MMP mRNA level (qRT-PCR) in MI rats; format: in vivo, rat; conditions: PPS-treatment
Description: (§1) At day 0 to 3 (median 2) after surgery, infarct size was quantified by echocardiography using the Vevo2100 system (Visualsonics Inc, Canada) and magnetic resonance imaging (MRi) using a 9.4 T/210 mm/ASR horizontal bore magnet (Agilent Technologies, Inc., USA). Initially, echocardiography was performed to select moderate to large infarcts ranging approximately 40 to 50%. Thereafter, infarct sizes were exactly measured by late-enhancement gadolinium MRi analyses (Bohl S., et al. American Journal of Physiology, 2009; 296 (4): H1200-H1208) and stratified into small infarcts (stratum 1: <43%, stratum 2: 43-48%), and large infarcts (stratum 3: 48-53%, stratum 4: >53%). The rats in each MI stratum and sham group were randomized to receive intervention or control treatment. The intervention group was treated with 6 mg/kg of sodium PPS (Interfarm AS, Norway), while the control group received vehicle (0.9% NaCl), both injected subcutaneously every third day starting from post-operative day 8-10.
The mRNA levels of the ADAMTS versicanases ADAMTS1, -4, -5, -8, and -20 (Shiomi T, et al. Pathology International 2010; 60(7):477-96), versican, aggrecan, syndecan-4, tissue inhibitor metalloprotease (TIMP)-3, and membrane-type (MT)4-MMP, were quantified in rat left ventricle by qRT-PCR, as previously described in Example 1.

versican = test: Versican DPEEAE fragments (immunoblotting) in MI rats; format: in vivo, rat; conditions: PPS-treatment
Description: as §1
Fractional protein lysates from myocardium of rats having undergone MI treated with PPS or vehicle were extracted as previously described in Example 1 and Didangelos et al. (Journal of Biological Chemistry 2012 Jun. 1; 287(23):19341-5). Protein concentrations were measured by western blotting as previously described in Example 1. […]

aortic banding rats = test: Aortic banding rat model: echocardiography and organ weights after PPS-treatment; format: in vivo; conditions: for Aorta / FS (fractional shortening) / Heart wt / IVSd (interventricular septal thickness at diastole) / LAD (left atrial diameter) / LV wt / LVDd (left ventricular diameter at diastole) / LVDs (left ventricular diameter at systole) / Lung wt / PWd (posterior wall thickness at diastole) / RV wt / Tissue Doppler Maximal velocity / Tissue Doppler Minimal velocity / HR (heart rate): PPS 6 mg/kg s.c. every third day, mean ± SEM; for HR (heart rate): in bpm (unit assumed)
From the text: The experimental procedures conformed to the European Convention for the Protection of Vertebrate Animals Used for Experimental and Other Scientific Purposes, and the protocols were approved by the Norwegian Council for Animal Research. Male Wistar rats weighing 160-170 g underwent AB essentially as described previously (Lunde et al. Physiol Genomics 2011. 44(2):162-72). Briefly, the ascending aorta was dissected free through a right hemithoracotomy, and ligated (3-0 silk) against a steel wire. The sham-operated rats (sham) were subjected to the same surgical procedure with a loose suture around the aorta. In all surgical procedures performed, a mixture of 67% N2O, 28% O2, and 4% isoflurane in an anaesthesia chamber was used for preoperative sedation. To maintain anaesthesia preoperatively, a mixture of 69% N2O, 29% O2, and 2% isoflurane was given by the endotracheal tube and the animals were ventilated on a respirator (Zoovent, Triumph Technical Services, Milton Keynes, UK). Buprenorphine was given as postoperative analgesia after AB.
In vivo heart function was evaluated using the Vevo2100 system (Visualsonics Inc, Canada) as previously described (Sjaastad et al. J Appl Physiol 2000; 89:1445-54). Thereafter, the heart was excised under deep anaesthesia, washed in saline and blotted dry to remove blood in the cardiac chambers. The heart chambers were separated by rapid dissection, before being snap-frozen in liquid nitrogen and stored at −70° C. until further analyses. For AB rats not receiving PPS- or vehicle treatment, selection into heart failure (ABHF) or hypertrophy (ABHT) groups was based on echocardiographic and postmortem analysis, as follows: Inclusion criteria for ABHF group were increased lung weight (>2.5 g), increased posterior wall diameter in diastole (PWDd) (>2.0 mm) and increased left atrial diameter (>5.0 mm), while criteria for inclusion in the ABHT group were increased PWDd (>2.0 mm), increased left ventricular weight (>0.75 g) and preserved lung weight (<2.0 g).
Three days after AB, rats were stratified by the gradient over the stenosis to ensure similar degree of cardiac stress. Two and two stratified rats were randomized to either 6 mg/kg of the sulfated polysaccharide sodium pentosan polysulfate (PPS) (Interfarm AS, Norway) or vehicle (0.9% NaCl) injected subcutaneously every third day. […] Six weeks after AB or sham operation, the rats were examined by echocardiography and postmortem analysis, performed by experienced investigators (IS, JMA) blinded to treatment group.

[1] = PPS-treated vs vehicle-treated AB-rats
[2] = aortic banding rats, six weeks after AB

pentosan polysulfate [PPS]
mRNA levels of MT4-MMP (MT4-MMP mRNA): decreased | versican DPEEAE fragments (versican): decreased | side effects including haemorrhage (aortic banding rats; AB rats, 6 mg/kg s.c. every third day, observed at daily basis): no side effects | lung weight compared to vehicle (aortic banding rats; PPS-treated AB-rats): tendency towards lower | higher fractional shortening compared to vehicle-treated AB-rats (aortic banding rats; [1]): 23% | left ventricular diameter in systole as part of the diameter in vehicle-treated AB-rats (aortic banding rats; [1]): three quarters | Aorta (aortic banding rats; [2]): 2.56 ± 0.03 mm | FS (fractional shortening) (aortic banding rats; [2]): 59.2 ± 1.5% | Heart wt (aortic banding rats; [2]): 1.87 ± 0.09 g | IVSd (interventricular septal thickness at diastole) (aortic banding rats; [2]): 2.11 ± 0.06 mm | LAD (left atrial diameter) (aortic banding rats; [2]): 4.18 ± 0.14 mm | LV wt (aortic banding rats; [2]): 0.95 ± 0.07 g | LVDd (left ventricular diameter at diastole) (aortic banding rats; [2]): 6.53 ± 0.13 mm | LVDs (left ventricular diameter at systole) (aortic banding rats; [2]): 2.67 ± 0.12 mm | Lung wt (aortic banding rats; [2]): 1.64 ± 0.08 g | PWd (posterior wall thickness at diastole) (aortic banding rats; [2]): 2.13 ± 0.06 mm | RV wt (aortic banding rats; [2]): 0.18 ± 0.01 g | Tissue Doppler Maximal velocity (aortic banding rats; [2]): 50.70 ± 2.94 | Tissue Doppler Minimal velocity (aortic banding rats; [2]): 59.06 ± 3.26 | HR (heart rate) (aortic banding rats; [2]): 420 ± 6 | Aorta (aortic banding rats; sham-operated rats, six weeks): 2.63 ± 0.04 mm | FS (fractional shortening) (aortic banding rats; sham-operated rats, six weeks): 53.6 ± 5.8% | Heart wt (aortic banding rats; sham-operated rats, six weeks): 1.19 ± 0.11 g | IVSd (interventricular septal thickness at diastole) (aortic banding rats; sham-operated rats, six weeks): 1.56 ± 0.04 mm | LAD (left atrial diameter) (aortic banding rats; sham-operated rats, six weeks): 3.68 ± 0.14 mm | LV wt (aortic banding rats; sham-operated rats, six weeks): 0.70 ± 0.03 g | LVDd (left ventricular diameter at diastole) (aortic banding rats; sham-operated rats, six weeks): 6.89 ± 0.10 mm | LVDs (left ventricular diameter at systole) (aortic banding rats; sham-operated rats, six weeks): 3.20 ± 0.41 mm | Lung wt (aortic banding rats; sham-operated rats, six weeks): 1.41 ± 0.03 g | PWd (posterior wall thickness at diastole) (aortic banding rats; sham-operated rats, six weeks): 1.68 ± 0.08 mm | RV wt (aortic banding rats; sham-operated rats, six weeks): 0.17 ± 0.01 g | Tissue Doppler Maximal velocity (aortic banding rats; sham-operated rats, six weeks): 72.9 ± 8.6 | Tissue Doppler Minimal velocity (aortic banding rats; sham-operated rats, six weeks): 82.4 ± 6.1 | HR (heart rate) (aortic banding rats; sham-operated rats, six weeks): 412 ± 11
